Test results published in ChEMBL document CHEMBL4673379 (ACS Med Chem Lett, 2021).

Legend:
[1] = Cytotoxicity against African green monkey Vero cells assessed as alteration in cell morphology by microscopic analysis; assay type: cell-based; details: chlorocebus sabaeus
SARS-CoV-2 [2] = test: Antiviral activity against SARS-CoV-2 UC-1074 infected in African green monkey Vero cells assessed as reduction in virus plaque formation measured on day 5 post-viral infection by microscopic analysis; assay type: functional, organism-based; details: Severe acute respiratory syndrome coronavirus 2, UC-1074, Vero, 120 h
SARS-CoV-2 [3] = test: Antiviral activity against SARS-CoV-2 UC-1075 infected in African green monkey Vero cells assessed as reduction in virus plaque formation measured on day 5 post-viral infection by microscopic analysis; assay type: functional, organism-based; details: Severe acute respiratory syndrome coronavirus 2, UC-1075, Vero, 120 h
Vero = test: Cytotoxicity against African green monkey Vero cells assessed as reduction in cell growth by coulter counter analysis; assay type: cell-based; details: chlorocebus sabaeus
[4] = Cytotoxicity against human HEL cells assessed as alteration in cell morphology incubated for 3 days by microscopic analysis; assay type: cell-based; details: time 3 day
Human alphaherpesvirus 3 [5] = test: Antiviral activity against thymidine kinase positive Varicella zoster virus OKA infected in human HEL cells assessed as reduction in virus plaque formation measured on day 5 post-viral infection; assay type: functional, organism-based; details: Human alphaherpesvirus 3, OKA, 120 h
Human betaherpesvirus 5 [6] = test: Antiviral activity against Human cytomegalovirus AD169 infected in human HEL cells assessed as reduction in virus plaque formation measured on day 6 to 7 post-viral infection; assay type: functional, cell-based; details: Human betaherpesvirus 5, AD169, HEL, 144 h
Human alphaherpesvirus 3 [7] = test: Antiviral activity against thymidine kinase deficient Varicella zoster virus 07-1 infected in human HEL cells assessed as reduction in virus plaque formation measured on day 5 post-viral infection; assay type: functional, organism-based; details: Human alphaherpesvirus 3, 07-1, HEL, 120 h
Human betaherpesvirus 5 [8] = test: Antiviral activity against Human cytomegalovirus Davis infected in human HEL cells assessed as reduction in virus plaque formation measured on 6 to 7 post-viral infection; assay type: functional, cell-based; details: Human betaherpesvirus 5, Davis
[9] = Selectivity index, ratio of CC50 for human HEL cells to EC50 for antiviral activity against thymidine kinase positive Varicella zoster virus OKA infected in human HEL cells; assay type: toxicity, cell-based; details: read-out: Ratio CC50/EC50
[10] = Selectivity index, ratio of CC50 for human HEL cells to EC50 for antiviral activity against thymidine kinase deficient Varicella zoster virus 07-1 infected in human HEL cells; assay type: toxicity, cell-based; details: read-out: Ratio CC50/EC50
SARS-CoV-2 [11] = test: Antiviral activity against SARS-CoV-2 infected in African green monkey Vero cells assessed as reduction in virus plaque formation measured on day 5 post-viral infection by microscopic analysis relative to remdesivir; assay type: functional, Severe acute respiratory syndrome coronavirus 2; details: time 5 day
[12] = Selectivity index, ratio of CC50 for African green monkey Vero cells to EC50 for antiviral activity against SARS-CoV-2 UC-1075 infected in African green monkey Vero cells; assay type: toxicity; details: read-out: Ratio CC50/EC50
HEL = test: Cytotoxicity against human HEL cells assessed as reduce in cell growth incubated for 3 days by coulter counter analysis; assay type: cell-based; details: 72 h, time 3 day
rhinovirus A1B = test: Antiviral activity against Human rhinovirus 1B infected in human HeLa cells assessed as inhibition of virus-induced cytopathicity measured after 2 days by SRB method; assay type: functional, organism-based; details: Rhinovirus A, 48 h
Influenza A virus = test: Antiviral activity against Influenza A virus (A/Puerto Rico/8/34(H1N1)) expressing NS116-GFP infected in human RPE cells assessed as inhibition of viral replication measured after 24 hrs by luminescence based assay; assay type: functional, organism-based; details: A/Puerto Rico/8/1934(H1N1), HRPE
Hepatitis C virus = test: Antiviral activity against Hepatitis C virus assessed as inhibition of viral replication incubated for 3 days by Renilla luciferase based assay; assay type: functional, organism-based, Hepacivirus hominis; details: 72 h
Zika virus = test: Antiviral activity against Zika virus infected in human RPE cells assessed as inhibition of virus-induced cytopathic effect measured at 48 hrs post-viral infection by CellTiter Glo assay; assay type: functional, organism-based; details: HRPE
Enterovirus C = test: Antiviral activity against Polio virus Mahoney infected in human HeLa cells assessed as inhibition of viral replication incubated for 2 days by luminescence analysis; assay type: functional, organism-based; details: 48 h
SARS-CoV-2 [13] = test: Antiviral activity against SARS-CoV-2 infected in African green monkey Vero E6 cells assessed as reduction in viral RNA copy number incubated for 24 hrs by real time RT-PCR analysis; assay type: functional, organism-based; details: Severe acute respiratory syndrome coronavirus 2, Vero C1008, 24 h
[14] = test system: Human immunodeficiency virus 1; test: Antiviral activity against HIV-1 infected in HEK293T cells assessed as inhibition of viral replication treated with compound 2 hrs prior to viral infection and measured after 24 hrs by flow cytometry; assay type: functional, organism-based; details: Human immunodeficiency virus 1, HEK-293T
[15] = test system: Middle East respiratory syndrome-related coronavirus; test: Antiviral activity against MERS-CoV Hu/Jordan-N3/2012 infected in African green monkey Vero E6 cells assessed as inhibition of viral replication treated for 1 hr prior to viral infection and measured after 48 hrs by ELISA; assay type: functional, organism-based; details: Hu/Jordan-N3/2012, Vero C1008

Compound	MCC [1] [µM]	EC50 (SARS-CoV-2 [2]) [nM]	EC50 (SARS-CoV-2 [3]) [nM]	CC50 (Vero) [nM]	MCC at 72 h [4] [µM]	EC50 (Human alphaherpesvirus 3 [5]) [nM]	EC50 (Human betaherpesvirus 5 [6]) [nM]	EC50 (Human alphaherpesvirus 3 [7]) [nM]	EC50 (Human betaherpesvirus 5 [8]) [nM]	CC50 (HEL) [nM]	other results
CCC(CC)COC(=O)[C@H](C)N[P@](=O)(OC[C@H]1O[C@@](C#N)(c2ccc3c(N)ncnn23)[C@H](O)[C@@H]1O)Oc1ccccc1	> 40	5800	1520	> 40000	–	–	–	–	–	–	–
CO[C@]1(CO)O[C@@H](n2ccc(=O)[nH]c2=O)C(F)(F)[C@@H]1O	–	–	–	–	> 100	> 100000	> 100000	> 100000	> 100000	–	–
Nc1ccn([C@@H]2O[C@](F)(CO)[C@@H](O)C2(F)F)c(=O)n1	0.16	360	96	260	20	42	815	166	930	110	selectivity ratio [9]: 2; selectivity ratio [10]: < 1; Ratio (SARS-CoV-2 [11]): 20; selectivity ratio [12]: 2
C[C@H](NP(=O)(OC[C@@]1(F)O[C@@H](n2ccc(N)nc2=O)C(F)(F)[C@@H]1O)Oc1ccccc1)C(=O)OCc1ccccc1 (stereo not given in full)	4	≥ 2400	730	1440	> 100	2320	15500	2840	4000	84400	selectivity ratio [9]: 36; selectivity ratio [10]: 29; Ratio (SARS-CoV-2 [11]): 10; selectivity ratio [12]: < 2
O=c1ccn([C@@H]2O[C@](F)(CO)[C@@H](O)C2(F)F)c(=O)[nH]1	–	–	–	–	> 100	> 100000	> 100000	> 100000	> 100000	–	–
CO[C@]1(COP(=O)(N[C@@H](C)C(=O)OCc2ccccc2)Oc2ccccc2)O[C@@H](n2ccc(N)nc2=O)C(F)(F)[C@@H]1O (stereo not given in full)	≥ 100	> 100000	≥ 55100	≥ 93600	> 100	> 100000	> 100000	> 100000	> 100000	–	–
CO[C@]1(CO)O[C@@H](n2ccc(N)nc2=O)C(F)(F)[C@@H]1O	> 100	–	≥ 86200	> 100000	> 100	> 100000	> 100000	> 100000	> 100000	–	–
Nc1nc2c(ncn2COCCO)c(=O)[nH]1 [ACYCLOVIR]	–	–	–	–	> 440	–	–	–	–	424000	–
O=c1[nH]c(=O)n([C@H]2C[C@H](O)[C@@H](CO)O2)cc1/C=C/Br [BRIVUDINE]	–	–	–	–	> 300	36	–	6040	–	> 300000	selectivity ratio [9]: > 8330; selectivity ratio [10]: > 49
Nc1ccn(C[C@@H](CO)OCP(=O)(O)O)c(=O)n1 [CIDOFOVIR]	–	–	–	–	300	–	650	–	340	–	–
C[C@H](NP(=O)(OC[C@H]1O[C@@H](n2ccc(N)nc2=O)C(F)(F)[C@@H]1O)Oc1ccccc1)C(=O)OCc1ccccc1 (stereo not given in full) [FOSGEMCITABINE PALABENAMIDE]	0.048	> 32	> 12.8	20	> 100	74	66	89	32	340	selectivity ratio [9]: 4; selectivity ratio [10]: 3
Nc1nc(O)c2ncn(COC(CO)CO)c2n1 [GANCICLOVIR]	–	–	–	–	350	–	–	–	–	–	–
Nc1ccn([C@@H]2O[C@H](CO)[C@@H](O)C2(F)F)c(=O)n1 [GEMCITABINE]	0.008	> 3.2	> 1.6	4.3	20	28	74	54	53	3.6	EC50 (rhinovirus A1B): 810 nM; EC50 (Influenza A virus): 68 nM; EC50 (Hepatitis C virus): 12 nM; EC50 (Zika virus): 10 nM; IC50 (Enterovirus C): 300 nM; EC50 (SARS-CoV-2 [13]): 1240 nM; EC50 [14]: 16.3 nM; EC50 [15]: 1220 nM
CCN(CCO)CCCC(C)Nc1ccnc2cc(Cl)ccc12 (stereo not given) [HYDROXYCHLOROQUINE]	100	8100	1740	36900	–	–	–	–	–	–	–
